The record followed here is ChEMBL document CHEMBL5226308, “Amide-Amine Replacement in Indole-2-carboxamides Yields Potent Mycobactericidal Agents with Improved Water Solubility” (ACS Med Chem Lett, 2021).

The source made the active and inactive calls. The calls are words filed in the database; no cut-off is given here.

Assay [1] relates to Mycobacterium tuberculosis variant bovis. In words: Inhibition of MmpL3 in Mycobacterium bovis BCG ATCC 35734 assessed as increase in TMM level at 1XMIC90 treated for 1 hr followed by incubation with [14C]acetate for 1 to 3 hrs by thin layer chromatography. The following applies: time 2-4 hrs, TDE = time-dependent effect.
For assay [2] the test system is unchanged. As to the kind of experiment: Inhibition of MmpL3 C1932G/F644L mutant in Mycobacterium bovis BCG B47-4 assessed as increase in TMM level at 1XMIC90 treated for 1 hr followed by incubation with [14C]acetate for 1 to 3 hrs by thin layer chromatography. The following applies: time 2-4 hrs.
The test system is the same in assay [3]. In words: Inhibition of MmpL3 in Mycobacterium bovis BCG ATCC 35734 assessed as reduction in TDM level at 1XMIC90 treated for 1 hr followed by incubation with [14C]acetate for 1 to 3 hrs by thin layer chromatography. The following applies: time 2-4 hrs, TDE = time-dependent effect.
Assay [4] has the same test system. In words: Inhibition of MmpL3 C1932G/F644L mutant in Mycobacterium bovis BCG B47-4 assessed as reduction in TDM level at 1XMIC90 treated for 1 hr followed by incubation with [14C]acetate for 1 to 3 hrs by thin layer chromatography. To be noted: time 2-4 hrs.
For assay [5] the test system is unchanged. In words: Inhibition of MmpL3 in Mycobacterium bovis BCG ATCC 35734 assessed as reduction in TDM level at 4XMIC90 treated for 1 hr followed by incubation with [14C]acetate for 1 to 3 hrs by thin layer chromatography. To be noted: time 2-4 hrs.
Assay [6] has the same test system. As to the kind of experiment: Inhibition of MmpL3 in Mycobacterium bovis BCG ATCC 35734 assessed as increase in TMM level at 4XMIC90 treated for 1 hr followed by incubation with [14C]acetate for 1 to 3 hrs by thin layer chromatography. To be noted: time 2-4 hrs.

Turning to `FC(F)(F)c1ccc2cc(CNC3CCCCCCC3)[nH]c2c1`, the inhibition result in assay [1] and in assay [3] was “Tde” each time. Besides, the inhibition entry in assay [2] and in assay [4] was “inactive” each time.

As to `O=C(NC1CCCCCCC1)c1cc2ccc(C(F)(F)F)cc2[nH]1`, the inhibition result in assay [1] and in assay [3] was “Tde” throughout. In addition, the inhibition entry in assay [2] and in assay [4] was “inactive” each time.

In the case of `O=C(NC1CCCCCCC1)c1cc2ccccc2[se]1`, the inhibition entry in assay [2] and in assay [4] was “inactive” each time.

For the compound `c1ccc2sc(CNC3CCCCCCC3)cc2c1`, the inhibition result in assay [1] and in assay [3] was “Tde” in each case. Also, the inhibition entry in assay [2] and in assay [4] was “inactive” in each case.

Turning to `O=C(NC1CCCCCCC1)c1cc2ccccc2s1`, the inhibition entry in assay [2] and in assay [4] was “inactive” throughout.

With `c1ccc2[se]c(CNC3CCCCCCC3)cc2c1`, the inhibition result in assay [2] and in assay [4] was “inactive” each time.

Turning to `Cc1c(CN2CCN(C)CC2)cc(-c2ccc(Cl)cc2)n1-c1ccc(Cl)cc1`, the inhibition entry in assay [1] and in assay [3] was “Tde” throughout. For the same compound, the inhibition result in assay [2] and in assay [4] was “inactive” throughout.

`CC[C@@H](CO)NCCN[C@@H](CC)CO`: the inhibition entry in assay [5] and in assay [6] was “inactive” each time.
